Source: patent publication US11236081B2, “Crystalline salts of corydalmine” (priority 2018, dated 2022)
Read-outs that look alike come from different tables or passages of the source.

Tests used:
[1] = Pharmacokinetic study: plasma concentration and plasma PK parameters after IV/PO dosing (LC-MS/MS, WinNonlin); assay type: in vivo, Male SD Rat; details: male, rat, plasma, male SD rat, plasma; for half-life: read-out: T1/2, Mean (converted)
Source text: Pharmacokinetic and Brain Penetration Study
Dose formulation processing during dosing: The dose formulations will be kept at room temperature.
Concentrations of Test Article in the plasma samples will be analyzed using a LC-MS/MS method.
WinNonlin (Phoenix™, version 6.1) or other similar software will be used for pharmacokinetic calculations. The following pharmacokinetic parameters will be calculated, whenever possible from the plasma concentration versus time data:
IV administration: T1/2, C0, AUClast, AUCinf, MRTinf, Cl, Vss, Number of Points for Regression.
PO administration: T1/2, Cmax, Tmax, MRTinf, AUCinf, AUClast, F %, Number of Points for Regression.
The pharmacokinetic data will be described using descriptive statistics such as mean, standard deviation.

[2] = Solubility studies in water at 2 hours; assay type: physicochemical
[3] = Acid pKa of the free base; assay type: physicochemical
[4] = Sprague-Dawley, iv, 3 mg/kg, IV 3 mg/kg, individual rats, read-out: concentration in plasma
[5] = Sprague-Dawley, iv, 3 mg/kg, IV 3 mg/kg, mean n=3, read-out: concentration in plasma, Mean
[6] = Sprague-Dawley, po, 10 mg/kg, PO 10 mg/kg (equal to freebase), mean n=3, vehicle 20% HP-β-CD in water (POA, freebase) or water (salts), read-out: concentration in plasma, Mean
[7] = Sprague-Dawley, po, 10 mg/kg, PO 10 mg/kg (equal to freebase), individual rats, vehicle 20% HP-β-CD in water (POA, freebase) or water (salts), read-out: concentration in plasma

## COc1cc2c(cc1OC)[C@@H]1Cc3ccc(O)c(OC)c3CN1CC2 [Compound (1), l-corydalmine]
[1]; SD, iv, 3 mg/kg, IV 3 mg/kg, individual rats, read-out: AUCInf
  AUC(0-inf): 950 ng·h/mL
[1]; SD, iv, 3 mg/kg, IV 3 mg/kg, individual rats, read-out: AUClast
  AUC(0-t): 937 ng·h/mL
[1]; SD, iv, 3 mg/kg, IV 3 mg/kg, individual rats, read-out: MRTInf_obs
  MRT inf: 1.09 h
[1]; SD, iv, 3 mg/kg, IV 3 mg/kg, mean n=3, read-out: AUCInf, Mean
  AUC(0-inf): 1020 ng·h/mL
[1]; SD, iv, 3 mg/kg, IV 3 mg/kg, mean n=3, read-out: AUClast, Mean
  AUC(0-t): 1000 ng·h/mL
[1]; SD, iv, 3 mg/kg, IV 3 mg/kg, mean n=3, read-out: MRTInf_obs, Mean
  MRT inf: 1.23 h
[1]; SD, po, 10 mg/kg, PO 10 mg/kg (equal to freebase), individual rats, vehicle 20% HP-β-CD in water (POA, freebase) or water (salts), read-out: AUCInf
  AUC(0-inf): 1490 ng·h/mL
[1]; SD, po, 10 mg/kg, PO 10 mg/kg (equal to freebase), individual rats, vehicle 20% HP-β-CD in water (POA, freebase) or water (salts), read-out: AUClast
  AUC(0-t): 615 ng·h/mL
[1]; SD, po, 10 mg/kg, PO 10 mg/kg (equal to freebase), individual rats, vehicle 20% HP-β-CD in water (POA, freebase) or water (salts), read-out: Tmax
  Tmax: 0.5 h
[1]; SD, po, 10 mg/kg, PO 10 mg/kg (equal to freebase), mean n=3, vehicle 20% HP-β-CD in water (POA, freebase) or water (salts), read-out: AUCInf, Mean
  AUC(0-inf): 1080 ng·h/mL
[1]; SD, po, 10 mg/kg, PO 10 mg/kg (equal to freebase), mean n=3, vehicle 20% HP-β-CD in water (POA, freebase) or water (salts), read-out: AUClast, Mean
  AUC(0-t): 788 ng·h/mL
[1]; SD, po, 10 mg/kg, PO 10 mg/kg (equal to freebase), mean n=3, vehicle 20% HP-β-CD in water (POA, freebase) or water (salts), read-out: Cmax, Mean
  Cmax: 202 ng/mL
[1]; SD, po, 10 mg/kg, PO 10 mg/kg (equal to freebase), mean n=3, vehicle 20% HP-β-CD in water (POA, freebase) or water (salts), read-out: MRTInf_obs, Mean
  MRT inf: 7.84 h
[1]; SD, po, 10 mg/kg, PO 10 mg/kg (equal to freebase), mean n=3, vehicle 20% HP-β-CD in water (POA, freebase) or water (salts)
  half-life: 4.9 h
[1]; SD, po, 10 mg/kg, PO 10 mg/kg (equal to freebase), mean n=3, vehicle 20% HP-β-CD in water (POA, freebase) or water (salts), read-out: Tmax, Mean
  Tmax: 0.417 h
[1]; [4]
  concentration at 0.083 h: 1420 ng/mL
  concentration at 0.25 h: 974 ng/mL
  concentration at 0.5 h: 401 ng/mL
  concentration at 1 h: 192 ng/mL
  concentration at 2 h: 63.3 ng/mL
  concentration at 24 h: 0.5 ng/mL
[1]; [5]
  concentration at 0.083 h: 1480 ng/mL
  concentration at 0.25 h: 976 ng/mL
  concentration at 0.5 h: 478 ng/mL
  concentration at 1 h: 191 ng/mL
  concentration at 2 h: 68.4 ng/mL
  concentration at 4 h: 30.6 ng/mL
  concentration at 8 h: 6.38 ng/mL
[1]; Sprague-Dawley, iv, 3 mg/kg, IV 3 mg/kg, individual rats, read-out: C0
  C0: 1710 ng/mL
[1]; Sprague-Dawley, iv, 3 mg/kg, IV 3 mg/kg, mean n=3
  half-life: 2.73 h
[1]; [6]
  concentration at 0.25 h: 191 ng/mL
  concentration at 0.5 h: 197 ng/mL
  concentration at 1 h: 125 ng/mL
  concentration at 2 h: 66.7 ng/mL
  concentration at 4 h: 51.2 ng/mL
  concentration at 8 h: 49.9 ng/mL
[1]; [7]
  concentration at 1 h: 109 ng/mL
  concentration at 2 h: 75.1 ng/mL
  concentration at 4 h: 66.3 ng/mL
  concentration at 8 h: 68.7 ng/mL
[1]; Sprague-Dawley, po, 10 mg/kg, PO 10 mg/kg, mean (one rat BLOQ), vehicle 20% HP-β-CD in water (POA), read-out: concentration in plasma, Mean
  concentration at 24 h: 0.574 ng/mL
[2]
  solubility at 2 h: < 1000 µg/mL
[3]
  pKa: ~5.2
